Columns and labels:
Blood plasma kinetics = test: Blood plasma kinetics; design: species or system rats; conditions: rat, in vivo
Subcutaneous CT-26 = test: Imaging and tissue distribution, tumor model; type: in vivo, Mouse xenograft; conditions: Colorectal adenocarcinoma
Excerpt: (§4) Imaging and tissue distribution studies performed in mouse models aimed at determining the uptake characteristics in a wide variety of tumor models are summarized in Table 1, below.

Liver CT-26 = test: Imaging and tissue distribution, tumor model; type: in vivo, Mouse xenograft; conditions: Colorectal adenocarcinoma
[1] = Toxicology studies of unlabeled NM404 in rabbits; type: in vivo; conditions: for toxic effects: 14 days observation
Excerpt: (§1) In preparation for human clinical trials, unlabeled NM404 was subjected to independent (University of Buffalo Toxicology Research Center) acute toxicity evaluation at 1200 times the anticipated imaging mass dose in rats and rabbits. […] Due to its selective tumor uptake and retention properties in a variety of rodent tumor models and subsequent excellent safety profile in rats and rabbits, NM404 was selected to undergo initial human pharmacokinetic evaluation in non-small cell lung cancer (NSCLC) patients. Patients underwent planar gamma-camera scintigraphy after receiving an injection of ^131I-NM404 (<1 mCi).
(§2) Formal toxicology studies of NM404 in male rats and rabbits were performed at the Toxicology Research Center of the State University of New York at Buffalo under the direction of Dr. Paul Kostyniak. Drug vehicle and drug product were provided to Dr. Kostyniak by Dr. Raymond Counsell of the University of Michigan for testing as described in the appended synopses of Study 27 and Study 28. […] Human safety studies of unlabeled NM404 were initiated in normal male humans at a mass of 10 times the anticipated imaging dose and about 21 times the anticipated therapy dose. […] This toxicology study was performed under GLP conditions.
(§3) Subsequently, the inventors initiated a toxicology study of unlabeled NM404 in female rats and rabbits (Study 31 and Study 32) at the Toxicology Research Center at SUNY-Buffalo in order to expand the patient population to be studied in the NSCLC Phase 1 clinical trial. […] Human safety studies of unlabeled NM404 were initiated in normal female humans at a mass of 10 times the initially anticipated imaging dose and about 21 times the anticipated therapy dose. […] This toxicology study was performed under GLP conditions.

[2] = Toxicology studies of unlabeled NM404 in rats; type: in vivo; conditions: for toxic effects: 14 days observation
Excerpt: as §1, §2, §3

SCC1 and 6 = test: Imaging and tissue distribution, tumor model; tumor regression; type: in vivo; conditions: Squamous cell carcinoma
Excerpt: During the course of mouse tumor uptake and retention studies with “imaging” doses (15-20 μCi/20 g mouse) of ^125I-labeled NM404, several apparent therapeutic responses have been observed (unpublished results). […] Some of these animals also lost all hair above larger mammary tumors at around 8 days after injection. Moreover, these mice also get intestinal tumors and usually suffer from intestinal bleeding resulting in severe anemia, which renders their feet white. […] Another compelling example of tumor regression is illustrated in FIG. 13. Two litter mates each received SCC1 and SCC6 xenografts in their left and right flanks, respectively. One mouse received a single injection of ^125I-NM404 (20 μCi). […] These coincidental findings were reconfirmed in two separate age-matched groups each involving more than 6 mice.

TRAMP prostate = test: Imaging and tissue distribution, tumor model; type: in vivo, Spontaneous mouse; conditions: Adenocarcinoma
Colon LS-180 = test: Imaging and tissue distribution, tumor model; type: in vivo, Nude Mouse; conditions: Adenocarcinoma
[3] = tested on: A549 human non-small cell lung cancer xenografts; test: Single-dose 125I-NM404 treatment, tumor volume, A549 xenografts; type: in vivo, SCID mice; conditions: unlabeled compound (control group), 10-week assessment
Excerpt: FIG. 3 illustrates antitumor effect of single-dose treatment with ^125I-125-NM404 at doses of 50 (∘), 150 (□), 250 (⋄) and 500 (∘) μCi in SCID mice bearing A549 human non-small cell lung cancer xenografts. In FIG. 3, control animals show rapidly growing tumors over the 10-week assessment period. […] Tumor volumes are stable and some tumors appear “collapsed” (the tumor surface has collapsed). Additionally, hair above the tumors fell off confirming substantial accumulation of radioactivity in these tumors.
FIG. 4 is an image showing one of the tumor-bearing animals treated with 250 μCi of ^125I-NM404 at 4 weeks following injection. The hair above the tumor has fallen off, apparently due to the significant accumulation of radioactivity in the tumor. […] The measurement method for determining outer tumor dimensions may have underestimated tumor volume response following dosing with ^125I-NM404;
The inventors have previously shown that ^125I-labeled PLE analogs such as NM404 are effective in targeting tumor therapies to tumor cells following single injection and fractionated dosing. For assessment of efficacy of ^125I-NM404 treatment, assessments of tumor volume were made until 10 weeks post-injection or until no animal in the control group was alive, whatever came first. Summarizing the results, control animals show rapidly growing tumors over the 10-week assessment period. See, FIGS. 2 and 3. […] Tumor volumes are stable and the same tumors appear “collapsed” (the tumor surface has caved in). Additionally, the hair above the tumors fell off confirming substantial accumulation of radioactivity in these tumors, FIG. 4. […] (See also, for example, U.S. patent application Ser. No. 11/671,403 hereby incorporated in its entirety for all purposes.)

[4] = tested on: human PC-3 prostate tumor xenografts; test: Scintigraphy, microPET and tissue distribution in PC-3 tumor model; type: in vivo, SCID mice
Procedure: The avidity of PLE and APC analogs to localize in tumors was evaluated in several animal models. The PC-3 model represents a human tumor cell line that was used to determine the target (tumor) to non-target ratio of NM404 and NM412 in head to head comparison in order to select a candidate for an initial human pharmacokinetic trial in prostate cancer patients. The MatLyLu (Dunning R3327 rat) model, a rat prostate tumor line, was used specifically to screen 9 specific analogs prior to entering them into control for dosimetry and tumor-bearing animals for determining tumor/background ratios. Finally, the Walker-256 carcinosarcoma model was used for quantitative tissue distribution purposes.
Gamma camera scintigraphy images shown in FIG. 5 directly compare the tumor uptake and body clearance of second generation analog ^125I-NM404 (1) versus its shorter chain, first generation predecessor, ^125I-NM324 (12-(m-iodophenyl)dodecyl phosphocholine) at 1, 2, and 4 days post administration in immune-compromised SCID mice bearing human PC-3 prostate tumor xenografts.
Tumor uptake, however, continued to increase up until day 5 when it reached 18% injected dose per gram of tumor. […] Tumor to background tissue ratios exceeded 4, 6.8, 23, and 9 in blood, liver, muscle, and prostate, respectively, 3 days after injection and continued to improve at 5 and 8 days. Again, although thyroid levels ranged from 26 to 54% injected dose per gram of tissue, these levels are actually quite low and represent an extremely small percentage of the injected dose when the exceedingly small mass of the organ is considered and the data are presented on a percent administered dose per organ basis.

[5] = tested on: Pancreatic c-myc and kras; test: Imaging and tissue distribution, tumor model; type: in vivo, Spontaneous mice; conditions: Adenocarcinoma
Excerpt: as §4

[6] = 1200 times the anticipated imaging mass dose

Compound: C[N+](C)(C)CCOP(=O)([O-])OCCCCCCCCCCCCCCCCCCc1ccc(I)cc1 [NM404, 18-(p-iodophenyl)-octadecyl phosphocholine]
- distribution phase half life (Blood plasma kinetics): 4.86 h
- elimination half life time in plasma (Blood plasma kinetics): roughly 209 hours
- Uptake (Subcutaneous CT-26): Yes
- Uptake (Liver CT-26): Yes
- acute toxicity [1, 6]: well tolerated and no acute toxicities were found
- toxic effects ([1]; female rabbits, single dose 0.04 mg/kg, Study 32, GLP): No significant toxic effects
- toxic effects ([1]; male rabbits, single dose 4 mg/kg, Study 28, GLP): No significant toxic effects
- acute toxicity [2, 6]: well tolerated and no acute toxicities were found
- toxic effects ([2]; female rats, single dose 0.04 mg/kg, Study 31, GLP): No significant toxic effects
- toxic effects ([2]; male rats, single dose 4 mg/kg, Study 27, GLP): No significant toxic effects
- Uptake (SCC1 and 6): Yes
- Uptake (TRAMP prostate): Yes
- Uptake (Colon LS-180): Yes
- effect on tumor growth [3]: no substantial effect on tumor growth
- tumor to background tissue ratio, blood ([4]; 3 days after injection): exceeded 4
- tumor to background tissue ratio, liver ([4]; 3 days after injection): > 6.8
- tumor to background tissue ratio, muscle ([4]; 3 days after injection): > 23
- tumor to background tissue ratio, prostate ([4]; 3 days after injection): > 9
- elimination of radioactivity from normal tissues ([4]; 8 day evaluation period): rapid elimination of radioactivity from all normal tissues
- Uptake ([4]; Prostate PC-3, Adenocarcinoma): Yes
- tumor uptake ([4]; SCID mouse prostate and A549 lung cancer tumor models): exceeding 25 % of the injected dose
- tumor uptake ([4]; radioiodinated NM404, day 5 (maximum)): 18 % injected dose per gram of tumor
- liver and background radioactivity ([4]; scintigraphy at 1, 2 and 4 days, compared with NM324): much improved
- Uptake [5]: Yes

Source: patent US8022235B2, “Compositions of phospholipid ether boronic acids and esters and methods for their synthesis and use” (Cellectar, Inc., priority 2007, dated 2011)
